In brackets after ≈: the same amount, converted by molar mass.
Tests used:
Haemophilus influenzae = test: Antibacterial activity against Haemophilus influenzae ATCC 49247; format: functional
Staphylococcus aureus [1] = test: Antibacterial activity against […] Staphylococcus aureus ATCC 25923; format: functional
[2] = target: T1, MAO-B (amine oxidase [flavin-containing] B) (Homo sapiens, UniProt P27338); test: Inhibition of human recombinant MAO-B using p-tyramine as substrate at 50 to 200 uM measured up to 50 mins by ELISA screening analysis; conditions: probe p-tyramine
T1 sequence (P27338 whole entry): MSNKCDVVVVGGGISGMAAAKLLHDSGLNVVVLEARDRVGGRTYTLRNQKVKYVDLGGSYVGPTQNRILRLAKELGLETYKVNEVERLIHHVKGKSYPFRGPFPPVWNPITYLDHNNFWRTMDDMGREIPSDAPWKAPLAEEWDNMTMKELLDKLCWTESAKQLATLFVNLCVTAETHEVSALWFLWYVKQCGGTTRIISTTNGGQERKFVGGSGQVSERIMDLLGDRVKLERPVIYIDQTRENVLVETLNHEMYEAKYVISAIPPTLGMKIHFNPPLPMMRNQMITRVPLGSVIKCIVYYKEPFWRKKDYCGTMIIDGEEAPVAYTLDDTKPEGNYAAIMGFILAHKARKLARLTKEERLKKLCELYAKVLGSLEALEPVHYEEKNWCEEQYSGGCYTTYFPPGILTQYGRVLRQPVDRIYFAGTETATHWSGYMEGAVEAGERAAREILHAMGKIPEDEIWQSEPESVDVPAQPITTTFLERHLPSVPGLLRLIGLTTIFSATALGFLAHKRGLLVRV

Streptococcus pneumoniae = test: Antibacterial activity against Streptococcus pneumoniae; format: functional
[3] = system: Staphylococcus epidermidis; test: Antibacterial activity against methicillin-sensitive Staphylococcus epidermidis ATCC 12228; format: functional
[4] = target: T2, MAO-A (amine oxidase [flavin-containing] A) (Homo sapiens, UniProt P21397); test: Inhibition of human recombinant MAO-A using p-tyramine as substrate at 50 to 200 uM measured up to 50 mins by ELISA screening analysis; conditions: probe p-tyramine
T2 sequence (P21397 whole entry): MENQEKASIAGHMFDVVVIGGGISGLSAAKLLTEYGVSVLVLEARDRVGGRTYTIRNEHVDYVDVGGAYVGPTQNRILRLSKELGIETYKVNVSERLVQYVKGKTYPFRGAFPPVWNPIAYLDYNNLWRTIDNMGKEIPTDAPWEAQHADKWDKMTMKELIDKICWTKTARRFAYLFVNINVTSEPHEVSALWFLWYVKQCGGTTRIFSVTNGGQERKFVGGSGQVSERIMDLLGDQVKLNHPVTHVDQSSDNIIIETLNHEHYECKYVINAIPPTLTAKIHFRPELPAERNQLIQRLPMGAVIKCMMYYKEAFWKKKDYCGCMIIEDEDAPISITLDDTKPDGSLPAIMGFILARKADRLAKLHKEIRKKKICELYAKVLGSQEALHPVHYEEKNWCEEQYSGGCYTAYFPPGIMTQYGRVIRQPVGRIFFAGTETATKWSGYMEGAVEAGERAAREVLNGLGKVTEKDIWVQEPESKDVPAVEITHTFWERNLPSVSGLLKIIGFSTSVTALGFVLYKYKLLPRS

Escherichia coli = test: Antibacterial activity against Escherichia coli ATCC 25922; format: functional
[5] = target: T3, Amine oxidase [flavin-containing] A (Homo sapiens, UniProt P21397); test: Reversible inhibition of human MAO-A
T3 sequence (P21397 whole entry): T2 sequence (P21397 whole entry)

[6] = target: T4, Amine oxidase [flavin-containing] B (Homo sapiens, UniProt P27338); test: Reversible inhibition of human MAO-B
T4 sequence (P27338 whole entry): T1 sequence (P27338 whole entry)

[7] = target: T3, Amine oxidase [flavin-containing] A; test: Inhibition of human recombinant MAO-A using p-tyramine as substrate after 15 mins by UV/Vis spectrophotometer analysis
[8] = target: T4, Amine oxidase [flavin-containing] B; test: Inhibition of human recombinant MAO-B using p-tyramine as substrate after 15 mins by UV/Vis spectrophotometer analysis
Homo sapiens = species: Homo sapiens; test: Selectivity ratio of IC50 for human recombinant MAO-A to IC50 for human recombinant MAO-B
[9] = system: Staphylococcus epidermidis; test: Antibacterial activity against methicillin-sensitive Staphylococcus epidermidis ATCC 12228 after 18 hrs by broth dilution method; format: functional; conditions: ATCC 12228, 18 h
Staphylococcus aureus [10] = test: Antibacterial activity against […] Staphylococcus aureus ATCC 25923 after 18 hrs by broth dilution method; format: functional; conditions: ATCC 25923, 18 h
[11] = system: Mycobacterium tuberculosis; test: Antimycobacterial activity against Mycobacterium tuberculosis H37Rv ATCC 27294; format: functional
[12] = system: Mycobacterium tuberculosis; test: Antimycobacterial activity against Mycobacterium tuberculosis H37Rv; format: functional

## CC(=O)N(O)C[C@H]1CN(c2ccc(N3CCN(C(C)=O)CC3)c(F)c2)C(=O)O1
Haemophilus influenzae
  MIC: > 32 µg/mL
Staphylococcus aureus [1]
  MIC: > 32 µg/mL
[2]
  inhibition at 50 min: < 50%
Streptococcus pneumoniae
  MIC: > 32 µg/mL
[3]
  MIC: > 32 µg/mL
[4]
  inhibition at 50 min: < 50%
Escherichia coli
  MIC: > 32 µg/mL

## CC(=O)NC[C@H]1CN(c2ccc(N3CCOCC3)c(F)c2)C(=O)O1 [LINEZOLID]
[5]
  IC50: 46 µM
[2]
  inhibition at 50 min: ≥ 50%
[6]
  IC50: 2.1 µM
[3]
  MIC: 2 µg/mL (≈ 5.93 µM)
[4]
  inhibition at 50 min: ≥ 50%

## CC(=O)N1CCN(c2ccc(N3C[C@H](CN(OC(=O)C(C)C)C(=O)C(C)C)OC3=O)cc2F)CC1
Haemophilus influenzae
  MIC: > 32 µg/mL
[2]
  inhibition at 50 min: < 50%
Streptococcus pneumoniae
  MIC: > 32 µg/mL
[3]
  MIC: > 32 µg/mL
[4]
  inhibition at 50 min: < 50%
Escherichia coli
  MIC: > 32 µg/mL

## CCC(=O)N(O)C[C@H]1CN(c2ccc(N3CCOCC3)c(F)c2)C(=O)O1
Haemophilus influenzae
  MIC: > 32 µg/mL
[7]
  IC50: 115 µM
Staphylococcus aureus [1]
  MIC: > 32 µg/mL
[2]
  inhibition at 50 min: ≥ 50%
Streptococcus pneumoniae
  MIC: > 32 µg/mL
[8]
  IC50: 100 µM
[3]
  MIC: > 32 µg/mL
[4]
  inhibition at 50 min: ≥ 50%
Homo sapiens
  Ratio IC50: 1.15
Escherichia coli
  MIC: > 32 µg/mL

## CCC(=O)ON(C[C@H]1CN(c2ccc(N3CCOCC3)c(F)c2)C(=O)O1)C(=O)CC
Haemophilus influenzae
  MIC: > 32 µg/mL
[2]
  inhibition at 50 min: ≥ 50%
Streptococcus pneumoniae
  MIC: > 32 µg/mL
[8]
  IC50: 168 µM
[3]
  MIC: > 32 µg/mL
[4]
  inhibition at 50 min: < 50%
Escherichia coli
  MIC: > 32 µg/mL

## CC(=O)N1CCN(c2ccc(N3C[C@H](CNO)OC3=O)cc2F)CC1.O=C(O)C(F)(F)F
Haemophilus influenzae
  MIC: > 32 µg/mL
[7]
  IC50: 46.6 µM
Staphylococcus aureus [1]
  MIC: > 32 µg/mL
Streptococcus pneumoniae
  MIC: > 32 µg/mL
[3]
  MIC: > 32 µg/mL
[4]
  inhibition at 50 min: ≥ 50%
Escherichia coli
  MIC: > 32 µg/mL

## CCC(=O)N(O)C[C@H]1CN(c2ccc(N3CCN(C(C)=O)CC3)c(F)c2)C(=O)O1
Haemophilus influenzae
  MIC: > 32 µg/mL
Staphylococcus aureus [1]
  MIC: > 32 µg/mL
Streptococcus pneumoniae
  MIC: > 32 µg/mL
[3]
  MIC: > 32 µg/mL
[4]
  inhibition at 50 min: < 50%
Escherichia coli
  MIC: > 32 µg/mL

## O=C(ON(C[C@H]1CN(c2ccc(N3CCOCC3)c(F)c2)C(=O)O1)C(=O)C1CC1)C1CC1
Haemophilus influenzae
  MIC: > 32 µg/mL
[2]
  inhibition at 50 min: < 50%
Streptococcus pneumoniae
  MIC: > 32 µg/mL
[3]
  MIC: > 32 µg/mL
[4]
  inhibition at 50 min: < 50%
Escherichia coli
  MIC: > 32 µg/mL

## Cn1nnc(-c2ccc(-c3ccc(N4C[C@H](CO)OC4=O)cc3F)cn2)n1 [TEDIZOLID]
[5]
  IC50: 8.7 µM
[6]
  IC50: 5.7 µM

## O=C(C1CC1)N(O)C[C@H]1CN(c2ccc(N3CCOCC3)c(F)c2)C(=O)O1
Haemophilus influenzae
  MIC: > 32 µg/mL
[7]
  IC50: 112 µM
Staphylococcus aureus [1]
  MIC: > 32 µg/mL
[2]
  inhibition at 50 min: ≥ 50%
Streptococcus pneumoniae
  MIC: > 32 µg/mL
[8]
  IC50: 90.9 µM
[3]
  MIC: > 32 µg/mL
[4]
  inhibition at 50 min: ≥ 50%
Homo sapiens
  Ratio IC50: 1.23
Escherichia coli
  MIC: > 32 µg/mL

## CC(=O)ON(C[C@H]1CN(c2ccc(N3CCN(C(C)=O)CC3)c(F)c2)C(=O)O1)C(C)=O
Haemophilus influenzae
  MIC: > 32 µg/mL
Streptococcus pneumoniae
  MIC: > 32 µg/mL
[3]
  MIC: > 32 µg/mL
[4]
  inhibition at 50 min: < 50%
Escherichia coli
  MIC: > 32 µg/mL

## CC(=O)N(O)C[C@H]1CN(c2ccc(N3CCOCC3)c(F)c2)C(=O)O1
Haemophilus influenzae
  MIC: > 32 µg/mL
[2]
  inhibition at 50 min: < 50%
[9]
  MIC: 16 µg/mL (≈ 45.3 µM)
Streptococcus pneumoniae
  MIC: > 32 µg/mL
Staphylococcus aureus [10]
  MIC: > 32 µg/mL
[4]
  inhibition at 50 min: < 50%
Escherichia coli
  MIC: > 32 µg/mL
[11]
  MIC50: 1.38 µg/mL (≈ 3.91 µM)
  MIC90: 4.6 µg/mL (≈ 13 µM)

## CC(=O)ON(C[C@H]1CN(c2ccc(N3CCOCC3)c(F)c2)C(=O)O1)C(C)=O
Haemophilus influenzae
  MIC: > 32 µg/mL
[2]
  inhibition at 50 min: < 50%
Streptococcus pneumoniae
  MIC: > 32 µg/mL
[3]
  MIC: > 32 µg/mL
[4]
  inhibition at 50 min: < 50%
Escherichia coli
  MIC: > 32 µg/mL

## CC(=O)N1CCN(c2ccc(N3C[C@H](CN(OC(=O)C4CC4)C(=O)C4CC4)OC3=O)cc2F)CC1
Haemophilus influenzae
  MIC: > 32 µg/mL
Streptococcus pneumoniae
  MIC: > 32 µg/mL
[3]
  MIC: > 32 µg/mL
[4]
  inhibition at 50 min: < 50%
Escherichia coli
  MIC: > 32 µg/mL

## CC(C)C(=O)N(O)C[C@H]1CN(c2ccc(N3CCOCC3)c(F)c2)C(=O)O1
Haemophilus influenzae
  MIC: > 32 µg/mL
Staphylococcus aureus [1]
  MIC: > 32 µg/mL
[2]
  inhibition at 50 min: ≥ 50%
Streptococcus pneumoniae
  MIC: > 32 µg/mL
[8]
  IC50: 107 µM
[3]
  MIC: > 32 µg/mL
[4]
  inhibition at 50 min: < 50%
Escherichia coli
  MIC: > 32 µg/mL

## NC(=S)NC[C@H]1CN(c2ccc(C3CCCCC3=O)c(F)c2)C(=O)O1 (some centres not stated)
[12]
  MIC: 0.06 µg/mL (≈ 0.164 µM)

## O=C1O[C@@H](CNO)CN1c1ccc(N2CCOCC2)c(F)c1
Haemophilus influenzae
  MIC: > 32 µg/mL
[7]
  IC50: 144 µM
Staphylococcus aureus [1]
  MIC: > 32 µg/mL
[2]
  inhibition at 50 min: ≥ 50%
Streptococcus pneumoniae
  MIC: > 32 µg/mL
[8]
  IC50: 112 µM
[3]
  MIC: > 32 µg/mL
[4]
  inhibition at 50 min: ≥ 50%
Homo sapiens
  Ratio IC50: 1.29
Escherichia coli
  MIC: > 32 µg/mL

## CCC(=O)ON(C[C@H]1CN(c2ccc(N3CCN(C(C)=O)CC3)c(F)c2)C(=O)O1)C(=O)CC
Haemophilus influenzae
  MIC: > 32 µg/mL
Streptococcus pneumoniae
  MIC: > 32 µg/mL
[3]
  MIC: > 32 µg/mL
[4]
  inhibition at 50 min: < 50%
Escherichia coli
  MIC: > 32 µg/mL

## CC(C)C(=O)ON(C[C@H]1CN(c2ccc(N3CCOCC3)c(F)c2)C(=O)O1)C(=O)C(C)C
Haemophilus influenzae
  MIC: > 32 µg/mL
[2]
  inhibition at 50 min: ≥ 50%
Streptococcus pneumoniae
  MIC: > 32 µg/mL
[8]
  IC50: 108 µM
[3]
  MIC: > 32 µg/mL
[4]
  inhibition at 50 min: < 50%
Escherichia coli
  MIC: > 32 µg/mL
